According to ChEMBL document CHEMBL3885861, “Open TG-GATES”:

Species: Rattus norvegicus
Experiment: Open TG-GATES - Regimen: Single
Format: toxicity, organism-based, Sprague-Dawley
Parameters: regimen Single, gender Male, age 6 weeks
Conditions: in vivo, po, 0 mg/kg, route gavage, dose level Control; for APTT / Bas / Eos / Fbg / Hb / Ht / Lym / MCH / MCHC / MCV / Mono / Neu / PT / Plat / RBC / Ret / WBC: tissue Blood; for KIDNEY_L / KIDNEY_R / KIDNEY_TOTAL: tissue Kidney; for LIVER: tissue Liver; for A/G / ALP / ALT / AST / BUN / CRE / Ca / Cl / DBIL / GLC / IP / K / LDH / Na / PL / RALB / TBIL / TC / TG / TP / gamma-GTP: tissue Plasma

What does the source list for CN/C(=N/CCSCc1nc[nH]c1C)NC#N [CIMETIDINE]?
TERMINAL_BW (3 h): 213.9 g; APTT (3 h): 18.4 s; Bas (3 h): 0%; Eos (3 h): 1%; Fbg (3 h): 217.6 mg/dL; Hb (3 h): 12.7 g/dL; Ht (3 h): 37.4%; Lym (3 h): 75.4%; MCH (3 h): 21.3 pg; MCHC (3 h): 34%; MCV (3 h): 62.5 fL; Mono (3 h): 3.2%; Neu (3 h): 19.2%; PT (3 h): 12.6 s; Plat (3 h): 139.7 x10_4/uL; RBC (3 h): 598.4 x10_4/ul; Ret (3 h): 7.9%; WBC (3 h): 95.7 x10_2/uL; KIDNEY_L (3 h): 1 g; KIDNEY_R (3 h): 1 g; KIDNEY_TOTAL (3 h): 2 g; LIVER (3 h): 10.1 g; A/G (3 h): 1.7; ALP (3 h): 1080.4 IU/L; ALT (3 h): 37.4 IU/L; AST (3 h): 71.2 IU/L; BUN (3 h): 12.4 mg/dL; CRE (3 h): 0.3 mg/dL; Ca (3 h): 10.8 mg/dL; Cl (3 h): 102.6 meq/L; DBIL (3 h): 0.072 mg/dL; GLC (3 h): 189 mg/dL; IP (3 h): 8.8 mg/dL; K (3 h): 3.7 meq/L; LDH (3 h): 134.2 IU/L; Na (3 h): 140.8 meq/L; PL (3 h): 147.6 mg/dL; RALB (3 h): 3.4 g/dL; TBIL (3 h): 0.1 mg/dL; TC (3 h): 77.2 mg/dL; TG (3 h): 65 mg/dL; TP (3 h): 5.4 g/dL; gamma-GTP (3 h): 1.4 IU/L; TERMINAL_BW (6 h): 211.8 g; APTT (6 h): 19.8 s; Bas (6 h): 0%; Eos (6 h): 1%; Fbg (6 h): 219.2 mg/dL; Hb (6 h): 13.2 g/dL; Ht (6 h): 37.8%; Lym (6 h): 75.6%; MCH (6 h): 21.6 pg; MCHC (6 h): 34.7%; MCV (6 h): 62.2 fL; Mono (6 h): 3.4%; Neu (6 h): 18.8%; PT (6 h): 12.8 s; Plat (6 h): 127.2 x10_4/uL; RBC (6 h): 607.6 x10_4/ul; Ret (6 h): 8%; WBC (6 h): 107.6 x10_2/uL; KIDNEY_L (6 h): 1 g; KIDNEY_R (6 h): 1 g; KIDNEY_TOTAL (6 h): 1.9 g; LIVER (6 h): 9.5 g; A/G (6 h): 1.5; ALP (6 h): 902.6 IU/L; ALT (6 h): 38 IU/L; AST (6 h): 70.2 IU/L; BUN (6 h): 10.2 mg/dL; CRE (6 h): 0.4 mg/dL; Ca (6 h): 10.7 mg/dL; Cl (6 h): 101.6 meq/L; DBIL (6 h): 0.074 mg/dL; GLC (6 h): 195.4 mg/dL; IP (6 h): 9.7 mg/dL; K (6 h): 3.8 meq/L; LDH (6 h): 161.6 IU/L; Na (6 h): 140.6 meq/L; PL (6 h): 151.2 mg/dL; RALB (6 h): 3.3 g/dL; TBIL (6 h): 0.1 mg/dL; TC (6 h): 81.8 mg/dL; TG (6 h): 64.4 mg/dL; TP (6 h): 5.5 g/dL; gamma-GTP (6 h): 1.4 IU/L; TERMINAL_BW (9 h): 206.6 g; APTT (9 h): 17.6 s; Bas (9 h): 0%; Eos (9 h): 1%; Fbg (9 h): 222.6 mg/dL; Hb (9 h): 13.1 g/dL; Ht (9 h): 37.9%; Lym (9 h): 75.6%; MCH (9 h): 21.5 pg; MCHC (9 h): 34.6%; MCV (9 h): 62 fL; Mono (9 h): 3%; Neu (9 h): 19.2%; PT (9 h): 12.8 s; Plat (9 h): 128 x10_4/uL; RBC (9 h): 612 x10_4/ul; Ret (9 h): 7.6%; WBC (9 h): 93 x10_2/uL; KIDNEY_L (9 h): 0.9 g; KIDNEY_R (9 h): 0.9 g; KIDNEY_TOTAL (9 h): 1.8 g; LIVER (9 h): 8.7 g; A/G (9 h): 1.6; ALP (9 h): 842 IU/L; ALT (9 h): 30 IU/L; AST (9 h): 66.2 IU/L; BUN (9 h): 12.6 mg/dL; CRE (9 h): 0.3 mg/dL; Ca (9 h): 10.5 mg/dL; Cl (9 h): 102.2 meq/L; DBIL (9 h): 0.074 mg/dL; GLC (9 h): 189.2 mg/dL; IP (9 h): 10 mg/dL; K (9 h): 3.8 meq/L; LDH (9 h): 120.4 IU/L; Na (9 h): 140.8 meq/L; PL (9 h): 139 mg/dL; RALB (9 h): 3.3 g/dL; TBIL (9 h): 0.1 mg/dL; TC (9 h): 77.4 mg/dL; TG (9 h): 47.8 mg/dL; TP (9 h): 5.4 g/dL; gamma-GTP (9 h): 1.4 IU/L; TERMINAL_BW (24 h): 224.9 g; APTT (24 h): 18.8 s; Bas (24 h): 0.2%; Eos (24 h): 0.8%; Fbg (24 h): 218.6 mg/dL; Hb (24 h): 13.5 g/dL; Ht (24 h): 40%; Lym (24 h): 81.4%; MCH (24 h): 21.6 pg; MCHC (24 h): 33.8%; MCV (24 h): 63.8 fL; Mono (24 h): 3%; Neu (24 h): 13.2%; PT (24 h): 12.1 s; Plat (24 h): 130.4 x10_4/uL; RBC (24 h): 627.6 x10_4/ul; Ret (24 h): 7.2%; WBC (24 h): 98.2 x10_2/uL; KIDNEY_L (24 h): 1 g; KIDNEY_R (24 h): 1 g; KIDNEY_TOTAL (24 h): 2 g; LIVER (24 h): 11 g; A/G (24 h): 1.6; ALP (24 h): 959.8 IU/L; ALT (24 h): 36.8 IU/L; AST (24 h): 64 IU/L; BUN (24 h): 15.6 mg/dL; CRE (24 h): 0.4 mg/dL; Ca (24 h): 10.9 mg/dL; Cl (24 h): 101.6 meq/L; DBIL (24 h): 0.1 mg/dL; GLC (24 h): 223.8 mg/dL; IP (24 h): 7.7 mg/dL; K (24 h): 4 meq/L; LDH (24 h): 147.6 IU/L; Na (24 h): 140.2 meq/L; PL (24 h): 158.6 mg/dL; RALB (24 h): 3.5 g/dL; TBIL (24 h): 0.2 mg/dL; TC (24 h): 79.8 mg/dL; TG (24 h): 118.8 mg/dL; TP (24 h): 5.6 g/dL; gamma-GTP (24 h): 1.8 IU/L
